These results are taken from patent US20220168472A1, “ENZYME-DEGRADABLE HYDROGEL FOR DELIVERY OF A PAYLOAD” (priority 2019, published 2022).

For test [1], the system named is human corneal epithelial cells (HCEpCs). As to the kind of experiment: PDMS stencil wound assay, HCEpCs, bolus HA or MMP-9. Format: cell-based. The note with it: for increase of wound healing rate: 0.1-0.6 mg/mL. The procedure: HCEpCs were cultured in a T-25 flask with keratinocyte serum-free media supplemented with keratinocyte growth serum and penicillin/streptomycin (KM; Sciencell) that was changed every other day. The SV-40 immortalized HCEpCs were generously donated from a collaborator (for example, see: F. Li, M. Griffith, Z. Li, S. Tanodekaew, H. Sheardown, M. Hakim, and D. J. Carlsson, “Recruitment of multiple cell lines by collagen-synthetic copolymer matrices in corneal regeneration,” Biomaterials, vol. 26, no. 16, pp. 3093-3104, 2005 Jun. 1, doi: https://doi.org/10.1016/j.biomaterials.2004.07.063; and/or M. Griffith, R. Osborne, R. Munger, X. Xiong, C. J. Doillon, N. L. C. Laycock, M. Hakim, Y. Song, and M. A. Watsky, “Functional Human Corneal Equivalents Constructed from Cell Lines,” Science, vol. 286, no. 5447, pp. 2169-2172, 1999, doi: 10.1126/science.286.5447.2169, the entire contents of which are incorporated herein by reference). Once confluence was reached, the HCEpCs were passaged in 2 ml of TrypLE Express (GIBCO, Life Technologies, Thermo Scientific) and subcultured for the wound assay as described previously. The HCEpCs were cultured with KM until a monolayer had formed. Wound assays were conducted as described above for RCEpCs. The well was then rinsed with PBS and replaced with KM. Images were taken daily to observe the closure of the wound and graphs were generated using GraphPad Prism 6.
(§1) To validate the wound assays 200 kDa hyaluronic acid (151-300 kDa HA; Lifecore Biomedicals) were added to the media of both RCEpC and HCEpC PDMS wound assays. Once the wound assays were validated, the efficacy of medium sized 60 kDa HA (66-99 kDa; Lifecore Biomedicals) was investigated. Various concentrations of 60 kDa HA were dissolved in KM and added as a bolus dosage to HCEpC wound assays. The media was changed daily until full closure of the wound. Images were taken daily to observe the closure of the wound and graphs were generated using GraphPad Prism 6.
(§2) To verify if the wound assay could provide a consistent initial wound area to two different corneal epithelial cell types, 1 mm diameter PDMS wound assays were performed with both rabbit corneal epithelial cells (RCEpCs; FIG. 20A) and human corneal epithelial cells (HCEpCs; FIG. 20B). Primary RCEpCs were initially used as they would behave similar to future in vivo rabbit studies. Healing of the wound varied between the two cell-types, with the primary RCEpC wound healing within 2 days and the HCEpC wound healing in 7 days (FIG. 20C). […] The improvement was narrowed to 21% (95.9%±6.9% wound closure) at 18.5 hours, compared to the control (74.9%±9.0%). […] HA was confirmed to be a potential drug due to its consistency among cell types, rapid ability to heal wounds, low minimum effective concentration, and cost efficiency.
Most literature assesses the effects of native high molecular weight HA and oligomer HA on epithelial wound healing. To obtain an ideal MMP-9 controlled release profile, the influence of mid-size 60 kDa HA on corneal wound healing was investigated. PDMS-stencil wound assays were conducted using 0.05, 0.1, 0.3, 0.6, or 1.0 mg/ml of 60 kDa HA treatments daily (FIG. 21A). A 250 ng/ml MMP-9 sample was included to observe the effects of the enzyme on wound healing, similar to an in vivo environment.

Test [2] deals with rabbit corneal epithelial cells (RCEpCs). Briefly: PDMS stencil wound assay, RCEpCs, bolus HA. Format: cell-based. The procedure: Primary rabbit corneal epithelial cells (Cell Biologics Inc.) were cultured using a T-25 flask in epithelial cell media supplemented with insulin-transferrin-selenium, epidermal growth factor, L-glutamine, antibiotic-antimycotic solution and fetal bovine serum (Cell Biologics Inc.). Once confluence was reached, the RCEpCs were briefly rinsed with PBS and passaged with trypsin-EDTA (GIBCO, Thermo Scientific). The cells were then sub-cultured on a 24-well plate surface pre-coated with a gelatin-based coating (Cell Biologics Inc.) containing a thin, punched out poly-dimethyl siloxane (PDMS) stencil adhered to the surface. The media was changed daily until a cell monolayer was formed. The PDMS disk stencil was then carefully removed from the surface. The well was then rinsed with PBS and replaced with epithelial cell media. Images were taken daily to observe the closure of the wound and graphs were generated using GraphPad Prism 6.
as §1, §2

Turning to hyaluronic acid [60 kDa HA], the “increase of wound healing rate” value was 24% in test [1] (60 hours) and 40% in test [1] (first 24 hours). The “wound healing compared to the control” value in test [1] (0.3, 0.6, and 0.05 mg/ml daily) is on record as “healed rapidly”; in test [1] (the other HA samples (of 0.05, 0.1, 0.3, 0.6, 1.0 mg/ml) daily), “slowed wound healing compared to the control”.
Turning to hyaluronic acid [HA], the “improvement in wound healing relative to the control” value came out at 31% in test [1] (0.45 mg/ml HA, 33 hours); 19% in test [1] (0.45 mg/ml HA, 59.5 hours); 58% in test [1] (0.75 mg/ml HA, 18.5 hours); 26% in test [1] (0.75 mg/ml HA, 59.5 hours); 149% in test [2] (0.45 mg/ml HA, 4 hours); 21% in test [2] (0.45 mg/ml HA, 18.5 hours). Besides, in test [2] (0.75 mg/ml HA, 12 hours), the “improvement in wound healing relative to the control” value worked out at 35%. For the same substance, the wound closure in test [1] (0.45 mg/ml HA, 33 hours) is 42.8%±7.2%; in test [1] (0.45 mg/ml HA, 59.5 hours), 81.8%±7.6%; in test [1] (0.75 mg/ml HA, 18.5 hours), 27.5%±7.1%; in test [1] (0.75 mg/ml HA, 59.5 hours) it was 86.5%±4.2%; in test [2] (0.45 mg/ml HA, 4 hours) it was 36.4%±14.6%; in test [2] (0.45 mg/ml HA, 18.5 hours), 95.9%±6.9%. The wound closure in test [2] (0.75 mg/ml HA, 12 hours) is 64.9%±13.6%.
